Results on 36 compounds are retold here after patent publication US20040067915A1, “Method to treat cardiofibrosis with a combination of an angiotensin II antagonist and spironolactone” (G.D. Searle & Co., priority 1995, published 2004).

Assay [1] concerns the target angiotensin II AT1 receptor. Briefly: Assay A: Angiotensin II Binding Activity (125I-AII displacement, rat uterine membrane preparation). As for the experimental part: Assay A: Antiotensin II Binding Activity
Compounds of the invention were tested for ability to bind to the smooth muscle angiotensin II receptor using a rat uterine membrane preparation. […] Rat uterine membranes were prepared from fresh tissue. All procedures were carried out at 4° C. Uteri were stripped of fat and homogenized in phosphate-buffered saline at pH 7.4 containing 5 mM EDTA. The homogenate was centrifuged at 1500×g for 20 min., and the supernatant was recentrifuged at 100,000×g for 60 min. The pellet was resuspended in buffer consisting of 2 mM EDTA and 50 mM Tris-HCl (pH 7.5) to a final protein concentration of 4 mg/ml. […] The reaction was initiates by the addition of membrane protein and the mixture was incubated at 25° C. for 60 min. The incubation was terminated with ice-cold 50 mM Tris-HCl (pH 7.5) and the mixture was filtered to separate membrane-bound labelled peptide from the free ligand. The incubation tube and filter were washed with ice-cold buffer. Filters were assayed for radioactivity in a Micromedic gamma counter. Nonspecific binding was defined as binding in the presence of 10 μM of unlabelled AII. Specific binding was calculated as total binding minus nonspecific binding. […] Binding data were analyzed by a nonlinear least-squares curve fitting program.
1Assay A: Angiotensin II Binding Activity

Another assay has as its system pressor response to AII. The assay is described as follows: Assay C: In vivo Intragastric Pressor Assay Response for AII Antagonists. The settings on record: rat; for inhibition at 3 mg/kg: po, AII pressor response. Here is the method: Assay C: In vivo Intragastric Pressor Assay Response for All Antagonists
Male Sprague-Dawley rats weighing 225-300 grams were anesthetized with methohexital (30 mg/kg, i.p.) and catheters were implanted into the femoral artery and vein. The catheters were tunneled subcutaneously to exit dorsally, posterior to the head and between the scapulae. The catheters were filled with heparin (1000 units/ml of saline). The rats were returned to their cage and allowed regular rat chow and water ad libitum. After full recovery from surgery (3-4 days), rats were placed in Lucite holders and the arterial line was connected to a pressure transducer. Arterial pressure was recorded on a Gould polygraph (mmHg). Angiotensin II was administered as a 30 ng/kg bolus via the venous catheter delivered in a 50 μl volume with a 0.2 ml saline flush. The pressor response in mm Hg was measured by the difference from pre-injection arterial pressure to the maximum pressure achieved. The AII injection was repeated every 10 minutes until three consecutive injections yielded responses within 4 mmHg of each other. These three responses were then averaged and represented the control response to AII. The test compound was suspended in 0.5% methylcellulose in water and was administered by gavage. The volume administered was 2 ml/kg body weight. The standard dose was 3 mg/kg. Angiotensin II bolus injections were given at 30, 45, 60, 75, 120, 150, and 180 minutes after gavage. The pressor response to AII was measured at each time point. The rats were then returned to their cage for future testing. A minimum of 3 days was allowed between tests. Percent inhibition was calculated for each time point following gavage by the following formula: [(Control Response—Response at time point)/Control Response]×100.
3Assay C: In vivo Pressor Response

For another assay, the system named is angiotensin II. The settings on record: binding experiments, functional assays and in vivo tests; cited from earlier work.
Assay [2] addresses T1, angiotensin II receptor (rabbit aortic rings) (Oryctolagus cuniculus, UniProt P34976).
T1 construct: The thoracic aorta was removed, cleaned of adherent fat and connective tissue and then cut into 3-mm ring segments; from tissue; host or cells: rabbit thoracic aorta rings, endothelium removed
T1 sequence (P34976 1-359): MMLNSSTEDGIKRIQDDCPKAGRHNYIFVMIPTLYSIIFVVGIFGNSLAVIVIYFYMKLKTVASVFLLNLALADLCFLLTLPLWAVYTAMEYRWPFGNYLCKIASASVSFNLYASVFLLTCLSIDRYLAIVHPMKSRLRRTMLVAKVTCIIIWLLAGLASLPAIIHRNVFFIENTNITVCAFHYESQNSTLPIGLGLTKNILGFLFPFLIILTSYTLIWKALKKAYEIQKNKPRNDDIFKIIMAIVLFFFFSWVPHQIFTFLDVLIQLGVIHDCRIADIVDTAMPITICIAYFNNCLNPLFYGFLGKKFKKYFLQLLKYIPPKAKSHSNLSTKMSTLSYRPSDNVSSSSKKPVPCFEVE
Briefly: Assay B: In vitro Vascular Smooth Muscle Response for AII (rabbit aortic rings, pA2). Format: cell-based. More on the design: key to Assay B pA2 (NC = Non-Competitive antagonist): NC=Non-Competitive antagonist. The settings on record: for Kb: two determinations given as a/b. As for the experimental part:
Assay B: In vitro Vascular Smooth Muscle-response for AII
The compounds of the invention were tested for antagonist activity in rabbit aortic rings. Male New Zealand white rabbits (2-2.5 kg) were sacrificed using an overdose of pentobarbital and exsanguinated via the carotid arteries. The thoracic aorta was removed, cleaned of adherent fat and connective tissue and then cut into 3-mm ring segments. The endothelium was removed from the rings by gently sliding a rolled-up piece of filter paper into the vessel lumen. The rings were then mounted in a water-jacketed tissue bath, maintained at 37° C., between moveable and fixed ends of a stainless steel wire with the moveable end attached to an FT03 Grass transducer coupled to a Model 7D Grass Polygraph for recording isometric force responses. […] The preparations were equilibrated for one hour before approximately one gram of passive tension was placed on the rings. Angiotensin II concentration-response curves were then recorded (3×10^−10 to 1×10^−5 M). Each concentration of AII was allowed to elicit its maximal contraction, and then AII was washed out repeatedly for 30 minutes before rechallenging with a higher concentration of AII. Aorta rings were exposed to the test antagonist at 10^−5 M for 5 minutes before challenging with AII. Adjacent segments of the same aorta ring were used for all concentration-response curves in the presence or absence of the test antagonist. The effectiveness of the test compound was expressed in terms of pA2 values and were calculated according to H. O. Schild [Br. J. Pharmacol. Chemother., 2, 189-206 (1947)]. The pA2 value is […] which increases the EC50 value for AII by a factor of two. Each test antagonist was evaluated in aorta rings from two rabbits.
2Assay B: In vitro Vascular Smooth Muscle Response

pIC50: −log10 of the molar value. Bounds are passed on as bounds.

With `CCCCc1nc(Cl)nn1Cc1ccc(-c2ccccc2C(=O)O)cc1` [Compound 6], the pIC50 in assay [1] is 5.89. Further, the “Assay C Duration” value with pressor response to AII (dose 100 mg/kg) turned out to be 120 min.

Turning to `CCCCc1cn(C2C3CC4CC(C3)CC2C4)c(=O)n1Cc1ccc(-c2ccccc2-c2nnn[nH]2)nc1` (stereo not drawn) [Compound 213], the negative logarithm of the IC50 (pIC50) in assay [1] is 7.29.

With `CCCc1nc(CCC)n(Cc2ccc(-c3ccccc3-c3nnn[nH]3)cc2)n1` [Compound 15], the pIC50 in assay [1] was 7.80.

With `CCCCc1nc2c(OC(C)=O)nnc(OC(C)=O)c2n1Cc1ccc(-c2ccccc2-c2nnn[nH]2)cc1` [Compound 125], in the assay with pressor response to AII (dose 3 mg/kg), the “Assay C Duration” value is more than 240 min and the inhibition at 3 mg/kg was determined as 35%.

`CCCCc1nc(CCC)nn1Cc1ccc(-c2ccccc2-c2nnn[nH]2)nc1` [Compound 246] showed a negative-log IC50 (pIC50) in assay [1] of 7.14.

Consider `CCCCc1nc2cnncc2n1Cc1ccc(-c2ccccc2-c2nnn[nH]2)cc1` [Compound 115], for which, in the assay on pressor response to AII (dose 3 mg/kg), the “Assay C Duration” value was more than 240 min and testing at 3 mg/kg gave an inhibition of 40%.

Take `CCCCc1nc(-c2ccccc2)nn1Cc1ccc(-c2ccccc2-c2nnn[nH]2)cc1` [Compound 21]: the negative logarithm of the IC50 (pIC50) in assay [1] was 8.15.

Take `CCCCc1nc(Cl)c(CC(=O)[O-])n1Cc1ccccc1[N+](=O)[O-].[Na+]` [sodium salt of 2-butyl-4-chloro-1-(2-nitrobenzyl)imidazole-5-acetic acid]: in the assay with angiotensin II, the “angiotensin II antagonist activity” value was “specific competitive angiotensin II antagonist activity”.

On to `CCCCc1nc(C(F)(F)CCC)nn1Cc1ccc(-c2ccccc2-c2nnn[nH]2)cc1` [Compound 10], for which the pIC50 in assay [1] is 8.31. In addition, the results for the “Assay C Duration” value in the assay on pressor response to AII (dose 3 mg/kg) and in the assay on pressor response to AII (dose 30 mg/kg) were 100 min and 240 min, respectively.

In assay [1], `CCCc1nc(CCC(C)C)n(Cc2ccc(-c3ccccc3-c3nnn[nH]3)cc2)n1` [Compound 16] had a pIC50 of 8.19.

In turn, `CCCCc1nn(C(CC(=O)OCC)C(=O)c2ccccc2)c(=O)n1Cc1ccc(-c2ccccc2-c2nn[nH]n2)cc1` (stereo not drawn) [Compound 101] gave an antagonist dissociation constant (Kb) in assay [2] of 15.8 nM.

Regarding `CCCCc1nn(CC(=O)C23CC4CC(CC(C4)C2)C3)c(=O)n1Cc1ccc(-c2ccccc2-c2nn[nH]n2)cc1` [Compound 80], the antagonist equilibrium constant (Kb) in assay [2] is 7.94 nM.

The compound `CCCCc1nn(CC(=O)OC(C)(C)C)c(=O)n1Cc1ccc(-c2ccccc2-c2nn[nH]n2)cc1` [Compound 84] gave an antagonist equilibrium constant (Kb) in assay [2] of 79.4 nM.

The compound `CCCCc1nc(CCCC2CCCCC2)n(Cc2ccc(-c3ccccc3-c3nnn[nH]3)cc2)n1` [Compound 57] showed an antagonist equilibrium constant (Kb) in assay [2] of 1000 nM.

As for `CCCCc1nn(CCCCC(=O)O)c(=O)n1Cc1ccc(-c2ccccc2-c2nn[nH]n2)cc1` [Compound 103], the Kb in assay [2] was 10 nM.

`CCCCc1cn(CC2CCCCC2)c(=O)n1Cc1ccc(-c2ccccc2-c2nnn[nH]2)nc1` [Compound 205]: the pIC50 in assay [1] is 7.70. In the assay with pressor response to AII (dose 3 mg/kg), the “Assay C Duration” value was more than 180 min and testing at 3 mg/kg gave an inhibition of 40%.

`CCCCc1nn(CC(=O)c2cc(OC)ccc2OC)c(=O)n1Cc1ccc(-c2ccccc2-c2nn[nH]n2)cc1` [Compound 96] gave an antagonist equilibrium constant (Kb) in assay [2] of 10 nM.

Regarding `CCCCc1nc(Cl)n(Cc2ccc(-c3ccccc3C(=O)O)cc2)n1` [Compound 8], in assay [1], the pIC50 is 4.77.

The compound `CCCCc1nn(CC(=O)OCC)c(=O)n1Cc1ccc(-c2ccccc2-c2nn[nH]n2)cc1` [Compound 86] gave a Kb in assay [2] of 15.8 nM.

Take `CCCCc1nc(CC(CC)CC)n(Cc2ccc(-c3ccccc3-c3nnn[nH]3)nc2)n1` [Compound 250]: the negative-log IC50 (pIC50) in assay [1] was 7.37. Moreover, the inhibition at 3 mg/kg in the assay on pressor response to AII (dose 3 mg/kg) was found to be 0%.

Compound `CCCCc1nn(CC(=O)O)c(=O)n1Cc1ccc(-c2ccccc2-c2nn[nH]n2)cc1` [Compound 87] gave a Kb in assay [2] of 15.8 nM.

`CCCCc1nn(CC(OCC(=O)OCC)c2ccccc2)c(=O)n1Cc1ccc(-c2ccccc2-c2nn[nH]n2)cc1` (stereo not drawn) [Compound 107] had an antagonist dissociation constant (Kb) in assay [2] of 5.01 nM.

Regarding `CCCCc1nc(CCCC)n(Cc2ccc(-c3ccccc3C(=O)NNS(=O)(=O)C(F)(F)F)cc2)n1` [Compound 5], in assay [1], the pIC50 is 6.70. For the same compound, in the assay with pressor response to AII (dose 30 mg/kg), the “Assay C Duration” value fell in the range of 20 to 30 min.

On to `CCCCc1nn(CC(OCC(=O)O)c2ccccc2)c(=O)n1Cc1ccc(-c2ccccc2-c2nn[nH]n2)cc1` (stereo not drawn) [Compound 91], for which the antagonist dissociation constant (Kb) in assay [2] was 2.51 nM.

`CCCCc1nn(CC(O)c2ccccc2)c(=O)n1Cc1ccc(-c2ccccc2-c2nn[nH]n2)cc1` (stereo not drawn) [Compound 83] gave an antagonist equilibrium constant (Kb) in assay [2] of 5.01 nM.

For `CCCCc1nc(Cl)n(Cc2ccc(-c3ccccc3-c3nnn[nH]3)cc2)n1` [Compound 9], the negative logarithm of the IC50 (pIC50) in assay [1] was 6.15. Moreover, the “Assay C Duration” value with pressor response to AII (dose 30 mg/kg) was determined as 75 min; in the assay on pressor response to AII (dose 100 mg/kg), 130 min.

For the compound `CCCCc1nc(Cc2ccc(-c3ccccc3C(=O)O)cc2)nn1CCCC` [Compound 127], the Kb in assay [2] is 11000 nM.

For `CCCCc1cn(-c2ccccc2CC)c(=O)n1Cc1ccc(-c2ccccc2-c2nnn[nH]2)cc1` [Compound 271], the “Assay B pA2 (NC = Non-Competitive antagonist)” value in assay [2] is listed as “NC”.

The compound `CCCCc1nc(CCCC)n(Cc2ccc(-c3ccccc3-c3nnn[nH]3)cc2)n1` [Compound 3] showed a pIC50 in assay [1] of 8.27. Moreover, the “Assay C Duration” value was more than 180 min in the assay on pressor response to AII (dose 10 mg/kg) and 200^+ min in the assay with pressor response to AII (dose 30 mg/kg). Moreover, in assay [2], the Kb was 2 nM.

Compound `CCCCc1nc(C(F)(F)CCC)n(Cc2ccc(-c3ccccc3-c3nnn[nH]3)cc2)n1` [Compound 11] gave a negative logarithm of the IC50 (pIC50) in assay [1] of 6.80.

As for `CCCc1cn(CCC)c(=O)n1Cc1ccc(-c2ccccc2-c2nnn[nH]2)cc1` [Compound 138], the antagonist equilibrium constant (Kb) in assay [2] was 6.31 nM.

The compound `CCCCc1nn(CCCc2ccccc2)c(=O)n1Cc1ccc(-c2ccccc2-c2nn[nH]n2)cc1` [Compound 81] gave an antagonist dissociation constant (Kb) in assay [2] of 10 nM.

In assay [1], `CCCCc1nc(Cl)nn1Cc1ccc(-c2ccccc2-c2nnn[nH]2)cc1` [Compound 7] showed a pIC50 of 7.08. Also, the “Assay C Duration” value with pressor response to AII (dose 30 mg/kg) was found to be 130 min.

Turning to `CCCCc1nc(Cl)c(Cl)n1Cc1ccc(-n2cccc2C(=O)O)cc1` [Compound 147], the antagonist equilibrium constant (Kb) in assay [2] is 2510 nM.

Regarding `CCCCc1nn(CCCC)c(=O)n1Cc1ccc(-c2ccccc2C(=O)O)cc1` [Compound 78], the Kb in assay [2] is 100 nM.

Turning to `CCCCc1nc2c(O)nnc(CCC)c2n1Cc1ccc(-c2ccccc2-c2nn[nH]n2)cc1` [Compound 114], the Kb in assay [2] was 398 nM.
